The values that follow come from article PMC12595434, “Development of retinoid nuclear receptor pathway antagonists through targeting aldehyde dehydrogenase 1A3” (iScience, 2025).

Molecules are shown by their SMILES.

One data set is described as follows: Plasma stability (human). Conditions: read-out: Plasma stability T1/2 (human). In kind it is in vitro ADME.
For the next data set, the target named is T1, ROBO1 (Homo sapiens, UniProt Q9Y6N7).
T1 construct: Treated A375 cells were harvested from 10 × 15 cm plates; endogenous in cells; host or cells: A375 melanoma cells
In words: Thermal proteome profiling (TPP) in A375 cells. In kind it is cell-based. Conditions: ROBO1, 100 nM.

The next data set has as its target T2, TPX2 (Homo sapiens, UniProt Q9ULW0).
T2 construct: Treated A375 cells were harvested from 10 × 15 cm plates; endogenous in cells; host or cells: A375 melanoma cells
Briefly: Thermal proteome profiling (TPP) in A375 cells. Conditions: TPX2, 100 nM. In kind it is cell-based.

Another data set has as its target T3, CDCP1 (Homo sapiens, UniProt Q9H5V8).
T3 construct: Treated A375 cells were harvested from 10 × 15 cm plates; endogenous in cells; host or cells: A375 melanoma cells
Briefly: Thermal proteome profiling (TPP) in A375 cells. In kind it is cell-based. The conditions noted are these: CDCP1, 1 uM.

For the next data set, the target named is T4, C19orf66 (Homo sapiens, UniProt Q9NUL5).
T4 construct: Treated A375 cells were harvested from 10 × 15 cm plates; endogenous in cells; host or cells: A375 melanoma cells
In words: Thermal proteome profiling (TPP) in A375 cells. In kind it is cell-based. The conditions noted are these: C19orf66, 1 uM.

In a further data set the target is V1A (Homo sapiens, UniProt P37288). In words: Off-target profiling panel. In kind it is binding. The conditions noted are these: read-out: Inhibition by MBE1 at 10 μM (%).
The target of the next data set is 5HTT (Homo sapiens, UniProt P31645). In words: Off-target profiling panel. The conditions noted are these: read-out: Inhibition by MBE1 at 10 μM (%). In kind it is binding.
In another data set the target is DAT (Homo sapiens, UniProt Q01959). Briefly: Off-target profiling panel. In kind it is binding. The conditions noted are these: read-out: Inhibition by MBE1 at 10 μM (%).
The next data set addresses H1 (Homo sapiens, UniProt P35367). In words: Off-target profiling panel. In kind it is binding. Conditions: read-out: Inhibition by MBE1 at 10 μM (%).
The target in another data set is GR (Homo sapiens, UniProt P04150). Briefly: Off-target profiling panel. The conditions noted are these: read-out: Inhibition by MBE1 at 10 μM (%). In kind it is binding.
The target in a further data set is 5HT3 (Homo sapiens, UniProt P46098). In words: Off-target profiling panel. In kind it is binding. Conditions: read-out: Inhibition by MBE1 at 10 μM (%).
A further data set deals with Beta1 (Homo sapiens, UniProt P08588). In words: Off-target profiling panel. In kind it is binding. The conditions noted are these: read-out: Inhibition by MBE1 at 10 μM (%).
The target of another data set is nACHR-Alpha7 (Homo sapiens, UniProt P36544). Briefly: biochemical. In kind it is binding. Conditions: read-out: Inhibition by MBE1 at 10 μM (%).
The next data set deals with CB2 (Homo sapiens, UniProt P34972). Briefly: Off-target profiling panel. The conditions noted are these: read-out: Inhibition by MBE1 at 10 μM (%). In kind it is binding.
A further data set has as its target COX2 (Homo sapiens, UniProt P35354). Briefly: Off-target profiling panel. Conditions: read-out: Inhibition by MBE1 at 10 μM (%). In kind it is biochemical.
The target in a further data set is LCK (Homo sapiens, UniProt P06239). Briefly: Off-target profiling panel. In kind it is biochemical. The conditions noted are these: read-out: Inhibition by MBE1 at 10 μM (%).
For another data set, the target named is Eta agonist (Homo sapiens, UniProt P25101). Briefly: Off-target profiling panel. The conditions noted are these: read-out: Inhibition by MBE1 at 10 μM (%). In kind it is cell-based.
The next data set relates to GABAA. In words: Off-target profiling panel.
A further data set addresses T5, ALDH1A3 (Homo sapiens, UniProt P47895).
T5 sequence (P47895 1-512): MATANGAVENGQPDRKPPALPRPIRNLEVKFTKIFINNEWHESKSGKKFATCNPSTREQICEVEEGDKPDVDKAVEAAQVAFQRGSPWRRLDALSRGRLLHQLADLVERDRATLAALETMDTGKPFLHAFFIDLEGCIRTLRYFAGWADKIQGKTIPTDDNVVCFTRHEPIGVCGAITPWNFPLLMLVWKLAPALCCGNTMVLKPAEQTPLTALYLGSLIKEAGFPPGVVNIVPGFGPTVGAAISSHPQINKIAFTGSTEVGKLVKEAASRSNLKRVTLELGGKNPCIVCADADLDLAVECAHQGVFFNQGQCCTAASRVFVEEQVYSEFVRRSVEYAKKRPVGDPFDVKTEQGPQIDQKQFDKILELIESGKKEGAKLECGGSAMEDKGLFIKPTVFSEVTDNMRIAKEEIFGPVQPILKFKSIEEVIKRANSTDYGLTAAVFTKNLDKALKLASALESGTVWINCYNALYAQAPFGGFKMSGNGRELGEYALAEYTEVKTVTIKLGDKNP
In words: Cellular thermal shift assay (CETSA) in A375 cells. In kind it is cell-based. The arrangement: endogenous in cells; host or cells: A375 cells. The conditions noted are these: 100 nM, 1h at 37°C. As to the method:
CETSA was performed according to protocols described before.[85] Briefly, 6 × 10cm dishes of A375 cells were collected and treated with 100 nM MBE1 or 0.1% DMSO for 1h at 37°C. Afterward, cells were pelleted through centrifugation at 300g for 5 min. Cells were then washed with ice-cold PBS and resuspended in 800 μL of PBS. Cell suspension was aliquoted to 7xPCR tubes with 100 μL each and subjected to thermal denaturation at 46.3, 48.6, 52.2, 56.5, 60.1, 62.5, 64.0°C for 3 min. The resulting sample was snap frozen in liquid nitrogen followed by incubation at room temperature until fully thawed. This procedure was performed twice followed by brief vortexing and mixing to release soluble proteins from the cells. Samples were then transferred to 1.5 mL Eppendorf tubes and centrifuged at 20,000g for 20 min at 4°C, 90 μL of the resulting supernatant was collected into another new 1.5 mL Eppendorf tube and subjected to protein analysis by western blot (WB). NPTN (proteintech #28022-1-AP) and ALDH1A3 (abcam #ab129815) were used to detect target proteins while GelCode Blue Stain Reagent (Thermofisher scientific #24590) was used to stain for total proteins loaded in the WB analysis.

Broadly, the inhibition is the relative decrease from the control value, in per cent.

T1 sequence (Q9Y6N7 26-1651): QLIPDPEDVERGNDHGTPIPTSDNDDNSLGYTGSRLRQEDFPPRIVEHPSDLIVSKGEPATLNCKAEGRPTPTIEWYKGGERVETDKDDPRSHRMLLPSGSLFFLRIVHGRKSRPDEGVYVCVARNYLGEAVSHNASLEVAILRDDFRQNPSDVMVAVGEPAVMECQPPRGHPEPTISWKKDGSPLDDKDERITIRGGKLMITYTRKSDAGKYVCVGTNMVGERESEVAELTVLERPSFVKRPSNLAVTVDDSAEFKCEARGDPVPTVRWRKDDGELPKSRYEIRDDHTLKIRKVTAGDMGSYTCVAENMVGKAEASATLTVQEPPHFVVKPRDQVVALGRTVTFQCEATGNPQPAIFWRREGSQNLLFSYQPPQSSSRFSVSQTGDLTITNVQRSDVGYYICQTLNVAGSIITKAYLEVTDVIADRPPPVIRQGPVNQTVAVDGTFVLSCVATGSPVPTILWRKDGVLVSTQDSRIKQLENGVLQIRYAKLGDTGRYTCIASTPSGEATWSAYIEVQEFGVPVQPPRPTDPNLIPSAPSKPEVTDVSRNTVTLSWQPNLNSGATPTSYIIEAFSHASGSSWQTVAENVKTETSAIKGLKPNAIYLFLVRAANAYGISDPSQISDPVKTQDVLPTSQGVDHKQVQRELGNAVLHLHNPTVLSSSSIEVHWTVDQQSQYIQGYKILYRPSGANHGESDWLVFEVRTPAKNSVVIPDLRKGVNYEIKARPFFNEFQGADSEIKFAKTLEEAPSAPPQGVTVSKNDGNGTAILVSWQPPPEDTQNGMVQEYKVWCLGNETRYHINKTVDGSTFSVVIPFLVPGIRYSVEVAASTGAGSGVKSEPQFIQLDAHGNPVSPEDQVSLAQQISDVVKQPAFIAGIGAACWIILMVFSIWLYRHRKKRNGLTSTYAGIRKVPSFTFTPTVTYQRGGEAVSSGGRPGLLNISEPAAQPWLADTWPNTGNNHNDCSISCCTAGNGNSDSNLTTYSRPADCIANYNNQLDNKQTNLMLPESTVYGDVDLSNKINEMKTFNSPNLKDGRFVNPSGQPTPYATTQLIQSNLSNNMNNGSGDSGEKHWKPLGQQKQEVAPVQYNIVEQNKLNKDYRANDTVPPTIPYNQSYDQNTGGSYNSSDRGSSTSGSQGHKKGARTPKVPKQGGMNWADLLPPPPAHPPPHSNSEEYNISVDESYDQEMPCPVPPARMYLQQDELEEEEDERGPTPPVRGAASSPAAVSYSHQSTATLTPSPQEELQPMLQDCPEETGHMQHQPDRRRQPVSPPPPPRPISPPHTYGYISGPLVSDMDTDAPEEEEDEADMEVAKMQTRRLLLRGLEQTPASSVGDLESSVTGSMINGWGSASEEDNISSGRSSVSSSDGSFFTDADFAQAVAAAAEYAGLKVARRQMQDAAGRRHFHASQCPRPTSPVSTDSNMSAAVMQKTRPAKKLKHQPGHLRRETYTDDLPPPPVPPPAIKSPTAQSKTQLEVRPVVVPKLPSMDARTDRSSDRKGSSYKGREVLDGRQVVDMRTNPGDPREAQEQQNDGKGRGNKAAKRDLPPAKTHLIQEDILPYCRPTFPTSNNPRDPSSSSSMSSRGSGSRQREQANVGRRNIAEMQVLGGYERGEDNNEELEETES
T3 sequence (Q9H5V8 30-836): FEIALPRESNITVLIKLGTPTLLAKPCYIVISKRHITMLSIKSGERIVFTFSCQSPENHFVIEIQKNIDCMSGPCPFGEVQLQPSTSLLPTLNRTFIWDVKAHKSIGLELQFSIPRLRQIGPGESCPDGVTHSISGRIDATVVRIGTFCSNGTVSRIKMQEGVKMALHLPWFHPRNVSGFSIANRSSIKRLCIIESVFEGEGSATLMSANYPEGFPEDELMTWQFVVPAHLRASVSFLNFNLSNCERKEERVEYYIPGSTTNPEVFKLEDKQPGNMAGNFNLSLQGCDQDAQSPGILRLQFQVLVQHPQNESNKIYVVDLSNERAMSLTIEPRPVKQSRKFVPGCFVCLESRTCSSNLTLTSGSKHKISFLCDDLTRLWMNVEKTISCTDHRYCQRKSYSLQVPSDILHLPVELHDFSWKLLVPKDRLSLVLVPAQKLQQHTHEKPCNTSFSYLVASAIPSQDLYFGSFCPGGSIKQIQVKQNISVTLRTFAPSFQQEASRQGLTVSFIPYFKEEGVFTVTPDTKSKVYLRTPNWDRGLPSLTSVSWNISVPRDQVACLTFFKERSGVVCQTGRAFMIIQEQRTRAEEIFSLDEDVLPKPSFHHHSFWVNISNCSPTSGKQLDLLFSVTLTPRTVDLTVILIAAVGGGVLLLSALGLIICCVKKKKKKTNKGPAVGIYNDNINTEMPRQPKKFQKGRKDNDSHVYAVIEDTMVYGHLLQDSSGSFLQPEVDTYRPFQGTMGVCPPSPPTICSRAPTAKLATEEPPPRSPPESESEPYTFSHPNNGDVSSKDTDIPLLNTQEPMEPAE
T2 sequence (Q9ULW0 whole entry): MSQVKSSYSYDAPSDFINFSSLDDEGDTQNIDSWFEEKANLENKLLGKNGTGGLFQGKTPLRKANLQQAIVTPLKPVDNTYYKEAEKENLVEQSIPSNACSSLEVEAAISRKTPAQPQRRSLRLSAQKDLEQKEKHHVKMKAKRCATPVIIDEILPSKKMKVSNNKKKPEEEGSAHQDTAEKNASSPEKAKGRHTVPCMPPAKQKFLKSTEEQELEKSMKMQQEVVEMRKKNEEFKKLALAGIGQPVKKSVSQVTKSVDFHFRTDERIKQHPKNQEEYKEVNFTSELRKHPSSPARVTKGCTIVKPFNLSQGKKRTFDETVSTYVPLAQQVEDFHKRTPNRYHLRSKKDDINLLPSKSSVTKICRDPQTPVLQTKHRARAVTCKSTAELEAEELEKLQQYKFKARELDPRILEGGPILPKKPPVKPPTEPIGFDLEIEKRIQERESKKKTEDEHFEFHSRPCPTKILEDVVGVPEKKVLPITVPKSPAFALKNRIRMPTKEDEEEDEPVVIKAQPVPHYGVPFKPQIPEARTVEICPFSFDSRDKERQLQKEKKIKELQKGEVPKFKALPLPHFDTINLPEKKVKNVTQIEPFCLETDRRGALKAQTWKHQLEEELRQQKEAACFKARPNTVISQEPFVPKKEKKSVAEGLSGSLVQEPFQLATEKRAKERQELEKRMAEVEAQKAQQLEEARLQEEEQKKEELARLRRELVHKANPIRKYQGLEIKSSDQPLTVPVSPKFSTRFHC
Sequence of GR (P04150 whole entry): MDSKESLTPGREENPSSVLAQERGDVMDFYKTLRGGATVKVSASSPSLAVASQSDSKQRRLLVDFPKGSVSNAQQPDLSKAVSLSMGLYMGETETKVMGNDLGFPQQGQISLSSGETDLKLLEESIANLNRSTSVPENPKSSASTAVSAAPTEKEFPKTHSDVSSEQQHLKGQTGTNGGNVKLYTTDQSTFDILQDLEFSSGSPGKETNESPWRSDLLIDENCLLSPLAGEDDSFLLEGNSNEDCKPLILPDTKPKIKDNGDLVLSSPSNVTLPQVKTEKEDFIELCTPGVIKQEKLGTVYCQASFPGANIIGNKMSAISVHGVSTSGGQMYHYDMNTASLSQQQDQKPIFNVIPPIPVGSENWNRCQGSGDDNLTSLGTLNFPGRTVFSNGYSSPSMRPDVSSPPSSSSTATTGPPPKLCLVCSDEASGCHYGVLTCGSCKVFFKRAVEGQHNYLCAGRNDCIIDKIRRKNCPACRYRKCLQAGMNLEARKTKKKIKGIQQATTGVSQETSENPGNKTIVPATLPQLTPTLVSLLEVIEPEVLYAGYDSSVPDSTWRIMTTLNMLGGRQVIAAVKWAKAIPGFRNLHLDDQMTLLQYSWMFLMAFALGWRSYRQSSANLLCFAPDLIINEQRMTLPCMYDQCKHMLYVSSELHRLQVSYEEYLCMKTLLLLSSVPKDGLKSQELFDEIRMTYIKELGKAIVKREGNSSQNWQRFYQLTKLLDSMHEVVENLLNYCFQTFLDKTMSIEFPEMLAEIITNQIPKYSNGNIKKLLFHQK
Sequence of 5HT3 (P46098 24-478): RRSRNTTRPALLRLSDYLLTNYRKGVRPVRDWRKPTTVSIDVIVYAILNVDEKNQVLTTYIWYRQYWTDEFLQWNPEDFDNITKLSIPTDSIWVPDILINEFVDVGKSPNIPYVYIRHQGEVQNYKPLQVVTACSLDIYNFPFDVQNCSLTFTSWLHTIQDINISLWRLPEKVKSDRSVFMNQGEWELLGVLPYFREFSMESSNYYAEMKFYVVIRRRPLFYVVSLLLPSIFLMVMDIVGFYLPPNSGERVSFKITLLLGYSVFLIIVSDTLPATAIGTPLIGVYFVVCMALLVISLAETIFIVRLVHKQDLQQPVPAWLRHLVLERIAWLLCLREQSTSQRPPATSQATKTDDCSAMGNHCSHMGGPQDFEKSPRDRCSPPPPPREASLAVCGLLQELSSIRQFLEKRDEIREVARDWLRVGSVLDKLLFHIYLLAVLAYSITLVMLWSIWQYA
Sequence of V1A (P37288 whole entry): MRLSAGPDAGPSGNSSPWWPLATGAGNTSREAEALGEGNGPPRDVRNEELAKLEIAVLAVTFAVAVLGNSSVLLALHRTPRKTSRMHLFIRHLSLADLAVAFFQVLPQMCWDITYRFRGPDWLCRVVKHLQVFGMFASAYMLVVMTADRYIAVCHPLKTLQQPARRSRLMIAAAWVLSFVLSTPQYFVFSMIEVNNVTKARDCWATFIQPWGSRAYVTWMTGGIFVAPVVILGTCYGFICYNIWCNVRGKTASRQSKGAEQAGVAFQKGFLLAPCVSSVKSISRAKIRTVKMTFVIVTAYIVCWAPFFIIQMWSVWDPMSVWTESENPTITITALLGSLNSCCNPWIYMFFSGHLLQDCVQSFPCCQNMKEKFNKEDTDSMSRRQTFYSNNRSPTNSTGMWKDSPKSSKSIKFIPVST

Turning to `CCc1cnccc1C(=O)Nc1cc2c(cc1F)NC(=O)CC2` [MBE1, 3-ethyl-N-(7-fluoro-2-oxo-3,4-dihydro-1H-quinolin-6-yl)pyridine-4-carboxamide], the half-life in “Plasma stability (human)” was > 4.82 h. Also, the “100nM MBE1 Tm” value worked out at 63.1814 on ROBO1 and 64 at TPX2. The entries for the “DMSO-100nM MBE1 TM” value at ROBO1 and at TPX2 were -8.49 and -7.655, respectively. In addition, at CDCP1 (A-375, read-out: DMSO-1uM MBE1 TM shift), the ΔTm at 1 µM is -7.8 °C. Further, the figures for the “1uM MBE1 Tm” value on CDCP1 and at C19orf66 were 63.2685 and 53.8379, respectively. In addition, the inhibition at 10 µM is 5.88% on V1A; -24.2% at 5HTT; -13.1% at DAT; -11.7% at H1; -13.5% on GR; -18.6% at 5HT3. Besides, the inhibition at 10 µM at Beta1 was -8.49%; on nACHR-Alpha7 it was -9.85%; at CB2, 5.07%; at COX2, -1.05%; at LCK it was -2.81%; on Eta agonist it was -0.16%. In the data set on GABAA, the “Inhibition by MBE1 at 10 μM (%)” value is −5.08%. Also, at ALDH1A3, the “stabilization of ALDH1A3 in CETSA (in words)” value is “increased stability and solubility at high temperatures”.
